The values that follow are results of earlier work, collected in patent US20060105962A1, “TONIC TO MAINTAIN INTESTINAL FLORA” (priority 2004, published 2006).

In the series the test system is rats. Particulars: exposure over a thirteen week period, up to 100% safety.

Molecules are shown by their SMILES.

For `O=Cc1ccco1` [furfural compounds, furfural], the “exposure to furfural compounds demonstrated as up to 100% safe” value was 53.0 mg/kg body weight.
